Data taken from patent US20110003878A1, “NOVEL DERIVATIVES OF PHTHALIMIDE AS HISTONE DEACETYLASE INHIBITORS” (UNIVERSIDAD DE GRANADA, priority 2006, published 2011).

Test system: HDAC (HeLa nuclear extract, rich in HDAC activity)
Assay: HDAC AK-501 colorimetric inhibition kit (Color de Lys substrate, HeLa nuclear extract)
Type: biochemical, human
Settings: Color de Lys substrate 0.2 mM final, 20 minutes at 37° C., reading at 405 nm, 5 concentrations (0.1-1.0 μM)
Description: The process of the assay was carried out in two steps. In the first step, the Color de Lys® substrate, containing an acetylated lysine group, was incubated with a sample of HeLa (human cervical cancer cell line) nuclear extract, rich in HDAC activity. […] There is a linear correlation between the absorption and the deacetylation of lysine within instrumental limits. The operating procedure was the following: • 1. […] The Hela extract was added, except to the enzyme-free control. • 3. The plate and the Color de Lys® substrate were thermostatted at 37° C. • 4. The reactions were started adding the 0.4 mM substrate (final concentration of the substrate 0.2 mM) in each well and it was stirred. • 5. A reaction time of 20 minutes at 37° C. was allowed. • 6. The Color de Lys® developer, prepared approximately 30 minutes before its use, was added (the developer was used diluted 20 times with an amount of TSA resulting in a final concentration of 1 μM in the assay). • It was allowed to react for 15 minutes at 37° C. • 7.

| SMILES | IC50 [nM] |
| --- | --- |
| Cc1ccc2c(c1)C(=O)N(CCCCCC(=O)NO)C2=O [MTC-141, 6-(5-methyl-1,3-dioxoisoindol-2-yl)-N-hydroxyhexanamide] | 180 |
| O=C(CCCCCN1C(=O)c2ccc([N+](=O)[O-])cc2C1=O)NO [MTC-127, 6-(5-nitro-1,3-dioxo-isoindol-2-yl)-N-hydroxyhexanamide] | 350 |
